# Measurements as given in publication PMC10175095 (Therapeutic drug monitoring, 2023).
# Legend:
# [1] = Reinjection stability in final extract; type: physicochemical; settings: reinjected, 4°C, autosampler, 25.95 h
# [2] = Pre-processed stability in human plasma; type: in vitro ADME; settings: 2.5 h
# [3] = Freeze-thaw stability of unprocessed plasma samples; type: in vitro ADME; settings: human plasma, 3 freeze (-80°C)-thaw cycles
# [4] = Processed sample stability in final extract; type: physicochemical; settings: 4°C, autosampler, 25.1 h
# [5] = Long-term stability of unprocessed plasma samples at −80°C; type: in vitro ADME; settings: human plasma
# [6] = requires confirmation in prospective studies; cited from earlier work
# [7] = RT (20–25°C), yellow light, nominal 15 ng/mL
# [8] = RT (20–25°C), yellow light, nominal 1500 ng/mL
structure (smiles),measurement,setting,value
"CC(=O)c1c(C)c2cnc(Nc3ccc(N4CCNCC4)cn3)nc2n(C2CCCC2)c1=O [Palbociclib, palbociclib]",Accuracy vs fresh QCs,[1]; nominal 15 ng/mL,100%
same,Accuracy vs. nominal concentration,[1]; nominal 15 ng/mL,112%
same,Mean measured concentration,[1]; nominal 15 ng/mL,16.7 ng/mL
same,Accuracy vs fresh QCs,[1]; nominal 150 ng/mL,99.0%
same,Accuracy vs. nominal concentration,[1]; nominal 150 ng/mL,106%
same,Mean measured concentration,[1]; nominal 150 ng/mL,160 ng/mL
same,Accuracy vs fresh QCs,[1]; nominal 1500 ng/mL,100%
same,Mean measured concentration,[1]; nominal 1500 ng/mL,1473 ng/mL
same,Accuracy vs fresh QCs,"[2]; 37°C, dark, nominal 15 ng/mL",94.8%
same,Accuracy vs. nominal concentration,"[2]; 37°C, dark, nominal 15 ng/mL",103%
same,Mean measured concentration,"[2]; 37°C, dark, nominal 15 ng/mL",15.4 ng/mL
same,Accuracy vs fresh QCs,"[2]; 37°C, dark, nominal 1500 ng/mL",102%
same,Accuracy vs. nominal concentration,"[2]; 37°C, dark, nominal 1500 ng/mL",99.3%
same,Mean measured concentration,"[2]; 37°C, dark, nominal 1500 ng/mL",1490 ng/mL
same,Accuracy vs fresh QCs,[2]; [7],95.6%
same,Accuracy vs. nominal concentration,[2]; [7],104%
same,Mean measured concentration,[2]; [7],15.5 ng/mL
same,Accuracy vs fresh QCs,[2]; [8],102%
same,Accuracy vs. nominal concentration,[2]; [8],99.6%
same,Mean measured concentration,[2]; [8],1493 ng/mL
same,Accuracy vs fresh QCs,[3]; nominal 15 ng/mL,98.1%
same,Accuracy vs. nominal concentration,[3]; nominal 15 ng/mL,99.8%
same,Mean measured concentration,[3]; nominal 15 ng/mL,15.0 ng/mL
same,Accuracy vs fresh QCs,[3]; nominal 1500 ng/mL,98.7%
same,Accuracy vs. nominal concentration,[3]; nominal 1500 ng/mL,96.9%
same,Mean measured concentration,[3]; nominal 1500 ng/mL,1453 ng/mL
same,Accuracy vs fresh QCs,[4]; nominal 15 ng/mL,99.0%
same,Accuracy vs. nominal concentration,[4]; nominal 15 ng/mL,110%
same,Mean measured concentration,[4]; nominal 15 ng/mL,16.5 ng/mL
same,Accuracy vs fresh QCs,[4]; nominal 1500 ng/mL,100%
same,Accuracy vs. nominal concentration,[4]; nominal 1500 ng/mL,98.7%
same,Mean measured concentration,[4]; nominal 1500 ng/mL,1480 ng/mL
same,Accuracy vs fresh QCs,"[5]; 3 months, nominal 15 ng/mL",94.0%
same,Accuracy vs. nominal concentration,"[5]; 3 months, nominal 15 ng/mL",99.8%
same,Mean measured concentration,"[5]; 3 months, nominal 15 ng/mL",15.0 ng/mL
same,Accuracy vs fresh QCs,"[5]; 3 months, nominal 150 ng/mL",92.8%
same,Accuracy vs. nominal concentration,"[5]; 3 months, nominal 150 ng/mL",102%
same,Mean measured concentration,"[5]; 3 months, nominal 150 ng/mL",153 ng/mL
same,Accuracy vs fresh QCs,"[5]; 3 months, nominal 1500 ng/mL",92.8%
same,Accuracy vs. nominal concentration,"[5]; 3 months, nominal 1500 ng/mL",96.0%
same,Mean measured concentration,"[5]; 3 months, nominal 1500 ng/mL",1440 ng/mL
same,Accuracy vs fresh QCs,"[5]; 7 months, nominal 15 ng/mL",92.1%
same,Accuracy vs. nominal concentration,"[5]; 7 months, nominal 15 ng/mL",101.3%
same,Mean measured concentration,"[5]; 7 months, nominal 15 ng/mL",15.2 ng/mL
same,Accuracy vs fresh QCs,"[5]; 7 months, nominal 150 ng/mL",85.7%
same,Accuracy vs. nominal concentration,"[5]; 7 months, nominal 150 ng/mL",109%
same,Mean measured concentration,"[5]; 7 months, nominal 150 ng/mL",163 ng/mL
same,Accuracy vs fresh QCs,"[5]; 7 months, nominal 1500 ng/mL",91.6%
same,Accuracy vs. nominal concentration,"[5]; 7 months, nominal 1500 ng/mL",92.2%
same,Mean measured concentration,"[5]; 7 months, nominal 1500 ng/mL",1383 ng/mL
same,Accuracy vs fresh QCs,"[5]; 12 months, nominal 15 ng/mL",96.4%
same,Accuracy vs. nominal concentration,"[5]; 12 months, nominal 15 ng/mL",104%
same,Mean measured concentration,"[5]; 12 months, nominal 15 ng/mL",15.6 ng/mL
same,Accuracy vs fresh QCs,"[5]; 12 months, nominal 150 ng/mL",95.3%
same,Accuracy vs. nominal concentration,"[5]; 12 months, nominal 150 ng/mL",105%
same,Mean measured concentration,"[5]; 12 months, nominal 150 ng/mL",157 ng/mL
same,Accuracy vs fresh QCs,"[5]; 12 months, nominal 1500 ng/mL",87.0%
same,Accuracy vs. nominal concentration,"[5]; 12 months, nominal 1500 ng/mL",108%
same,Mean measured concentration,"[5]; 12 months, nominal 1500 ng/mL",1613 ng/mL
"CCN1CCN(Cc2ccc(Nc3ncc(F)c(-c4cc(F)c5nc(C)n(C(C)C)c5c4)n3)nc2)CC1 [Abemaciclib, abemaciclib]",Accuracy vs fresh QCs,[1]; nominal 15 ng/mL,98.2%
same,Mean measured concentration,[1]; nominal 15 ng/mL,16.4 ng/mL
same,Accuracy vs fresh QCs,[1]; nominal 150 ng/mL,98.7%
same,Mean measured concentration,[1]; nominal 150 ng/mL,155 ng/mL
same,Accuracy vs fresh QCs,[1]; nominal 1500 ng/mL,103%
same,Mean measured concentration,[1]; nominal 1500 ng/mL,1527 ng/mL
same,Accuracy vs fresh QCs,"[2]; 37°C, dark, nominal 15 ng/mL",97.5%
same,Mean measured concentration,"[2]; 37°C, dark, nominal 15 ng/mL",15.4 ng/mL
same,Mean measured concentration,"[2]; 37°C, dark, nominal 1500 ng/mL",1527 ng/mL
same,Accuracy vs fresh QCs,[2]; [7],99.4%
same,Mean measured concentration,[2]; [7],15.7 ng/mL
same,Mean measured concentration,[2]; [8],1550 ng/mL
same,Mean measured concentration,[3]; nominal 15 ng/mL,15.1 ng/mL
same,Accuracy vs fresh QCs,[3]; nominal 1500 ng/mL,98.8%
same,Accuracy vs. nominal concentration,[3]; nominal 1500 ng/mL,98.7%
same,Mean measured concentration,[3]; nominal 1500 ng/mL,1480 ng/mL
same,Accuracy vs fresh QCs,[4]; nominal 15 ng/mL,95.6%
same,Mean measured concentration,[4]; nominal 15 ng/mL,15.9 ng/mL
same,Accuracy vs fresh QCs,[4]; nominal 1500 ng/mL,102%
same,Mean measured concentration,[4]; nominal 1500 ng/mL,1510 ng/mL
same,Proposed target Cmin for TDM,[6],200 to 210 ng/mL
same,Accuracy vs fresh QCs,"[5]; 3 months, nominal 15 ng/mL",98.6%
same,Mean measured concentration,"[5]; 3 months, nominal 15 ng/mL",14.7 ng/mL
same,Accuracy vs fresh QCs,"[5]; 3 months, nominal 150 ng/mL",95.5%
same,Mean measured concentration,"[5]; 3 months, nominal 150 ng/mL",149 ng/mL
same,Accuracy vs fresh QCs,"[5]; 3 months, nominal 1500 ng/mL",95.6%
same,Mean measured concentration,"[5]; 3 months, nominal 1500 ng/mL",1437 ng/mL
same,Mean measured concentration,"[5]; 7 months, nominal 15 ng/mL",14.1 ng/mL
same,Accuracy vs fresh QCs,"[5]; 7 months, nominal 150 ng/mL",98.9%
same,Mean measured concentration,"[5]; 7 months, nominal 150 ng/mL",156 ng/mL
same,Accuracy vs fresh QCs,"[5]; 7 months, nominal 1500 ng/mL",97.5%
same,Mean measured concentration,"[5]; 7 months, nominal 1500 ng/mL",1443 ng/mL
same,Mean measured concentration,"[5]; 12 months, nominal 15 ng/mL",15.2 ng/mL
same,Accuracy vs fresh QCs,"[5]; 12 months, nominal 150 ng/mL",99.0%
same,Mean measured concentration,"[5]; 12 months, nominal 150 ng/mL",164 ng/mL
same,Accuracy vs fresh QCs,"[5]; 12 months, nominal 1500 ng/mL",96.6%
same,Mean measured concentration,"[5]; 12 months, nominal 1500 ng/mL",1583 ng/mL
